Results: ChEMBL document CHEMBL5154693, “N-Methylpropargylamine-Conjugated Hydroxamic Acids as Dual Inhibitors of Monoamine Oxidase A and Histone Deacetylase for Glioma Treatment” (J Med Chem, 2022)
Activity calls are given as the source filed them. The rule behind the calls is not given here.

Columns and labels:
GL26 [1] = assay: Antitumor activity against mouse GL26 cells implanted in C57BL6 mouse assessed as reduction in tumor size at 50 mg/kg, ip daily measured for 10 days by bioluminescence assay; format: functional, organism-based; settings: time 10.0 day
GL26 [2] = assay: Induction of apoptosis in mouse GL26 cells assessed as proteolytic cleavage of PARP1 incubated for 48 hrs by Western blot analysis; format: functional, cell-based; settings: dose 1.25-5 µM, DDE = dose-dependent effect
GL26 [3] = assay: Inhibition of HDAC in mouse GL26 cells assessed as increase in histone H3 acetylation at 0.62 to 1.25 uM incubated for 48 hrs by Western blot analysis; format: cell-based; settings: dose 0.62-1.25 µM, DDE = dose-dependent effect
[4] = Toxicity in mouse bearing intracranial tumor assessed as median survival time at 50 mg/kg, ip for 10 days (Rvb= 13.8 days); format: organism-based; settings: in vivo, 240 h, time 10 day
Histone deacetylase 1 = Histone deacetylase 1 (Homo sapiens, UniProt Q13547); assay: Inhibition of human HDAC1 (379 to 382 residues) using RHKKAc-AMC fluorogenic peptide as substrate by fluorescence assay
GL26 [5] = assay: Inhibition of HDAC in mouse GL26 cells assessed as increase in alpha tubulin level at 0.62 to 1.25 uM incubated for 48 hrs by Western blot analysis; format: cell-based; settings: dose 0.62-1.25 µM, DDE = dose-dependent effect
Histone deacetylase 8 = molecular target: T1, Histone deacetylase 8 (Homo sapiens, UniProt Q9BY41); assay: Inhibition of human HDAC8 (379 to 382 residues) using RHKKAcKAc-AMC fluorogenic peptide as substrate by fluorescence assay
T1 sequence (Q9BY41 whole entry): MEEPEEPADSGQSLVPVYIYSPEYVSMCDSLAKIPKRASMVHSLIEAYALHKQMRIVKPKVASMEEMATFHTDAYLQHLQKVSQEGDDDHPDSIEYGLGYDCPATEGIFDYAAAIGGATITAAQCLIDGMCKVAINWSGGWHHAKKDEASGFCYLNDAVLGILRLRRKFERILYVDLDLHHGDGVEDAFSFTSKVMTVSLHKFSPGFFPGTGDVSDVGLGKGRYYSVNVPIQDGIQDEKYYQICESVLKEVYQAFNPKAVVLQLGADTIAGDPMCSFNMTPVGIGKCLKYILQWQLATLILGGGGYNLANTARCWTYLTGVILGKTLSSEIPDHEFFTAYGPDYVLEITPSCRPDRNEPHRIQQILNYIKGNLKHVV

[6] = Toxicity in mouse bearing intracranial tumor assessed as assessed as median survival time at 50 mg/kg, ip for 14 days treatment started at 5 days post-infection (Rvb=12.8 days); format: organism-based; settings: in vivo, 336 h, time 14 day
[7] = Toxicity in C57BL6 mouse xenografted with mouse GL26 cells as assessed as last day of survival at 50 mg/kg, ip for 14 days treatment started at 5 days post-infection (Rvb=14 days); format: organism-based; settings: in vivo, 336 h, time 14 day
[8] = Toxicity in mouse bearing intracranial tumor assessed as median survival time at 25 mg/kg, ip for 10 days (Rvb= 13.8 days); format: organism-based; settings: in vivo, 240 h, time 10 day
[9] = molecular target: Lysine-specific histone demethylase 1A (Homo sapiens, UniProt O60341); assay: Inhibition of human LSD1 assessed as demethylase activity of LSD1 using Histone H3(1-21)K4me2 peptide as substrate incubated for 30 mins followed by substrate addition by amplex red dye based HRP-coupled assay
[10] = Toxicity in mouse bearing intracranial tumor assessed as last day of survival at 25 mg/kg,ip for 10 days (Rvb=16 days); format: organism-based; settings: in vivo, 240 h, time 10 day

Sequence of Histone deacetylase 1 (Q13547 whole entry, the tested form may be a part): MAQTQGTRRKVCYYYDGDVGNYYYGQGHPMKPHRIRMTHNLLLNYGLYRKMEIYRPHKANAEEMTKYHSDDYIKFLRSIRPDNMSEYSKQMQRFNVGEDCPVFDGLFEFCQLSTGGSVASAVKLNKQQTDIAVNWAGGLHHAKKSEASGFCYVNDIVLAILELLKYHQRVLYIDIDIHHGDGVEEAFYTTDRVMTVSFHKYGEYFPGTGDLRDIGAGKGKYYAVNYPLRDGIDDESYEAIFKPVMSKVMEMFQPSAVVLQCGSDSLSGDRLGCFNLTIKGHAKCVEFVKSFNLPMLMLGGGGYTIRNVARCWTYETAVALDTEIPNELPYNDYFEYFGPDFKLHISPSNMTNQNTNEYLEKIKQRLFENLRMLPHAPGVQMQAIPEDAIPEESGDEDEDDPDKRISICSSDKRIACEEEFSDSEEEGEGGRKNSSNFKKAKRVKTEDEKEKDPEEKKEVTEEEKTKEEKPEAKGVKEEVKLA

SMILES | Activity (GL26 [1]) | Activity (GL26 [2]) | Activity (GL26 [3]) | Survival [4] [days] | IC50 (Histone deacetylase 1) [nM] | Activity (GL26 [5]) | IC50 (Histone deacetylase 8) [nM] | MST [6] [days] | Survival [7] [days] | Survival [8] [days] | EC50 [9] [nM] | Survival [10] [days]
C#CCN(C)CCCOc1ccc(NC(=O)CCCCCCC(=O)NO)cc1Cl | Active | Dde | Dde | 14.4 | 140 | Dde | 330 | 14.25 | 16 |  |  | 
C#CCN(C)CCCOc1cc(NCc2ccc(/C=C/C(=O)NO)cc2)ccc1Cl | Active |  |  |  | 510 |  | 80 | 12.75 | 14 | 16.4 | 10000 | 21
